Source: US8431528B2, “Antibacterial Lactobacillus GG peptides and methods of use” (priority 2008, dated 2013)
Read-outs that look alike come from different tables or passages of the source. Ends that are not written are not given here.

Key:
[1] = test system: methicillin-resistant Staphylococcus aureus (MRSA); type: cell-based; details: MRSA growth (FIG. 11)
Text: LGG CM (19.7×10^12 CFU/ML) as positive control.

[2] = test system: Tetracycline-resistant E. coli TOPO10; details: Tetracycline-resistant E. coli 8.7×10^13 CFU/ML, 3 hours, A600
Procedure: TOPO10 (8.76×10^13) 10 ml+100 ml peptide (in LB)+900 ml LB, mixed, incubated at 37° C., 225 rpm for 3 hours, at the end, measure A600 and calculation the inhibition rate. […] LGG CM (9.7×10^12 CFU/ML) as positive control.
(§1) SM 10_pir (2.6×10^13CFU) or TOPO10 (8.76×10^13) 10 μl, peptides solution 100 μl and (peptides dissolved in LB broth) were added into 900 ul LB broth, mixed, incubated at 37° C., for 3 hours with shaking at 225 rpm, measure the A600 at the end. Relative inhibition activity was calculated according to the following formula (1−A600 of sample group/A600 of control group)×100%.

Staphylococcus aureus = assay: Colony-count relative inhibition of Staphylococcus growth by peptide NPSRQERR; type: cell-based
Salmonella typhi = assay: Colony-count relative inhibition of Salmonella growth by peptide NPSRQERR; type: cell-based; details: S. typhi 38×10^6 CFU/mL; 3 hours, then overnight colony count
E. coli EAEC 042 = type: cell-based; details: EAEC 042, 3 h
Procedure: FIGS. 6A-6B show: EAEC 042 growth time-course (FIG. 6A). Ten microliters of E. coli (2.16×10^14 CFU/mL) were added in 1 mL LB broth and incubated in 37° C., shaking at 225 rpm, measuring A600 every 30 minutes. […] Ten microliters of EAEC 042 (7.7×10^12CFU/mL) were added to 1 mL LB broth mixed, and 100 mL of each peptide solution dissolved in MRS was added to the mixture. MRS alone (100 mL) and LGG CM (100 mL) (initial concentration 19.7×10^12CFU/mL) were used as negative and positive controls, respectively. The mixture was cultured for 3 hours and the A600 measured at the end of incubation. Also shown is the mean percentage inhibition ±SD. N=3 for all synthetic peptides tested. N=7 for LGG CM.
The assay was performed as described (12), with minor modifications. Briefly, 10 mL E. coli EAEC 042 (7.7×10^14CFU/mL) was added to 1.0 mL LB Broth, mixed, and 100 mL of each LGG-derived synthetic peptide solution dissolved in MRS (for peptide final concentration see FIG. 6B) was added to the mixture. MRS alone (100 mL) and LGG CM 100 mL (LGG concentration: 19.7×10^12 CFU/mL) were used as negative and positive controls, respectively. The mixture was cultured for 3 hours with shaking at 225 rpm, 37° C., measuring A600 at the end.

[3] = test system: Kanamycine-resistant E. coli SM10_pir; details: Kanamycine-resistant E. coli 2.6×10^13 CFU/ML, 3 hours, A600
Procedure: SM10_pir (2.6×10^13) 10 ml+100 ml peptide (in LB)+900 ml LB, mixed, incubated at 37° C., 225 rpm for 3 hours, at the end, measure A600 and calculation the inhibition rate. […] LGG CM (9.7×10^12 CFU/ML) as positive control.
as §1

NPSRQEFF (peptide sequence SEQ ID NO 1 where residues 7 and 8 are both replaced with Phe for a zero net charge) [variant of NPSRQERR with net positive charge decreased from 2 to 0]
inhibition activity lost relative to NPSRQERR ([1]; net positive charge decreased from 2 to 0): 12%

NPSRQERR [NPSRQERR]
inhibition rate ([2]; peptide 2.76 mM): 69.08% | peptide concentration at which 100% inhibition was reached (Staphylococcus aureus; S. aureus 44×10^6 CFU/mL, 3 hours, then overnight colony count): 64 mmol/L | effect on S. aureus (Staphylococcus aureus; compared with E. coli EAEC 042): less pronounced but dose dependent | peptide concentration at which 100% inhibition was reached (Salmonella typhi): 8 mmol/L | E. coli growth inhibition (E. coli EAEC 042): 81.4% | inhibition rate ([3]; peptide 2.76 mM): 43.75%

NPSRQQRR (antibacterial peptide isolated from Lactobacillus GG) [variant of NPSRQERR with net positive charge increased from 2 to 3]
inhibition activity increased relative to NPSRQERR ([1]; net positive charge increased from 2 to 3): 16.5%

PDENK [PDENK]
inhibition rate ([2]; peptide 3.31 mM): 81.4% | E. coli growth inhibition (E. coli EAEC 042): 68.7% | inhibition rate ([3]; peptide 3.31 mM): 68.54%

VHTAPK [VHTAPK]
inhibition rate ([2]; peptide 3.25 mM): 48.53% | E. coli growth inhibition (E. coli EAEC 042): 30% | inhibition rate ([3]; peptide 3.25 mM): 29.45%
